According to publication PMC2994747, “Molecular Characterization of c-Abl/c-Src Kinase Inhibitors Targeted against Murine Tumour Progenitor Cells that Express Stem Cell Markers” (PLoS ONE, 2010):
Each block holds one compound with its values, some of them ahead of it.

Tests used:
A2C12 [1] = test: Cell cycle analysis by flow cytometry; type: cell-based, mouse; conditions: IC50 concentration, 96 h
Summary of the method: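 Step one: detach cells with trypsin and rinse with PBS. Step two: pellet, then treat with solution A for 10 min at room temperature. Step three: add solutions B and C, with the final incubation cold (4°C) and dark, before cytometric acquisition.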

all tested cell lines = test: Caspase-Glo 3/7 activity assay, all tested cell lines; type: cell-based; conditions: IC50 concentration, 24 h; vs vehicle
Procedure: According to instructions, Caspase-Glo® 3/7 assay (Promega GmbH, Mannheim, Germany) was used for monitoring caspase activity. Briefly, the same volume Caspase-Glo reagent as culture medium was added and incubated 1 h at room temperature. Luminescence was read with a Victor3 Wallac 1420 Multilabel counter (PerkinElmer, Rodgau, Germany). Background absorbance (medium only) was subtracted and the data given as percent of vehicle controls.

c-Abl = molecular target: T1, c-Abl (Homo sapiens, UniProt P00519); test: Abl filter-binding kinase assay (Abtide, [γ-32P]ATP); type: biochemical; conditions: isolated Abl; calculated from ID50, ATP-competitive; E0 0.005, S0 0.012 µM
T1 construct: His tag; purchased Upstate (Lake Placid, NY, USA)
T1 sequence (P00519 whole entry): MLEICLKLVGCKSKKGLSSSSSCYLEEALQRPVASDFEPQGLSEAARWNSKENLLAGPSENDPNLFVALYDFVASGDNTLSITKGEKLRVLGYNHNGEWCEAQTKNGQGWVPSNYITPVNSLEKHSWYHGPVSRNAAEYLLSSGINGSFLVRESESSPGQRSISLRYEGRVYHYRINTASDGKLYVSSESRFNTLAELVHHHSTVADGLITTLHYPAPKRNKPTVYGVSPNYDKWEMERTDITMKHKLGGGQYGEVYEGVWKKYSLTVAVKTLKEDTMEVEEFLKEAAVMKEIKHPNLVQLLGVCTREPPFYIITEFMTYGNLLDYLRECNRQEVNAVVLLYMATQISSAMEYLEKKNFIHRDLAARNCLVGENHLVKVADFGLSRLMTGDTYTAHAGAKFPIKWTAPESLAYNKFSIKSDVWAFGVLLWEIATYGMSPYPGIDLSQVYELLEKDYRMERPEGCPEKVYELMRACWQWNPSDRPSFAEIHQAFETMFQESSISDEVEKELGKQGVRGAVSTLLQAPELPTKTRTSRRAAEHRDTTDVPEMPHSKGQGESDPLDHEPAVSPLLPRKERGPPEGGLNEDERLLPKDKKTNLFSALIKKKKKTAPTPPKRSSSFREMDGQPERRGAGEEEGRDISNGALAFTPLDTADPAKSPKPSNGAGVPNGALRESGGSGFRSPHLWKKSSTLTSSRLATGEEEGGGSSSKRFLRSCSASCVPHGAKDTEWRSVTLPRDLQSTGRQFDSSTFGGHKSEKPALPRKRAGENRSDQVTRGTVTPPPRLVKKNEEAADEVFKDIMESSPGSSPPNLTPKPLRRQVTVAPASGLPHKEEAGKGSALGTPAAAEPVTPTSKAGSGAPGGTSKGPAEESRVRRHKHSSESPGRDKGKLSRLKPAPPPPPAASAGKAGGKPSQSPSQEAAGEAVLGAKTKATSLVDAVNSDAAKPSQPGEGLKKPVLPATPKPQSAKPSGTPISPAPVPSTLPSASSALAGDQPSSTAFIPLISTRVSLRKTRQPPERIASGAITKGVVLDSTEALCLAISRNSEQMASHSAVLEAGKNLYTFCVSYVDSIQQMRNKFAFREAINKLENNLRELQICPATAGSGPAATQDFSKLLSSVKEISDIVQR
Procedure: (§1) Baculovirus-produced recombinant purified his-tagged active against human Src and Abl were purchased from Upstate (Lake Placid, NY, USA).
(§2) Src activity was measured in a filter-binding assay using the Src Assay Kit (Upstate, Lake Placid, NY, USA), according to the manufacturer's protocol, using the specific Src peptide substrate [[…]] in the presence of 0.125 pmol of Src and 0.160 pmol of [γ-^32P]ATP. Abl activity was measured in a filter-binding assay using an Abl specific peptide substrate (Abtide, Upstate). Reaction conditions were (in a final volume of 10 µl): 25 mM Tris-HCl pH 7.5, 1 mM DTT, 0.012 µM [γ-^32P]ATP, 0.022 µM c-Abl. Reactions were incubated 10 min at 30°C.The samples (9 µl) were spotted on paper cellulose filters which were washed according to the manufacturer's protocol. Filter-bound radioactivity was measured by liquid scintillation with a Microbeta-Trilux apparatus (PerkinElmer, Waltham, MA, USA).
(§3) The ID50 were converted to Ki according to a competitive mechanism with respect to the substrate ATP. […] Since (i) the ATP concentration was limiting, i.e., [ATP], Km(ATP), and (ii) the enzyme concentration was not negligible with respect to the ATP concentration, the classical Cheng-Prusoff relationship was not applicable. Consequently, Ki values were calculated according to [drawing 3] (2) where S0 is the concentration of the competing substrate (ATP) and E0 is the concentration of the enzyme. Each experiment was done in triplicate and mean values were used for the interpolation. Curve fitting was performed with the program GraphPad Prism.

c-Src = molecular target: T2, c-Src (Homo sapiens, UniProt P12931); test: Src filter-binding kinase assay (Src Assay Kit); type: biochemical
T2 construct: His tag; purchased Upstate (Lake Placid, NY, USA)
T2 sequence (P12931 whole entry): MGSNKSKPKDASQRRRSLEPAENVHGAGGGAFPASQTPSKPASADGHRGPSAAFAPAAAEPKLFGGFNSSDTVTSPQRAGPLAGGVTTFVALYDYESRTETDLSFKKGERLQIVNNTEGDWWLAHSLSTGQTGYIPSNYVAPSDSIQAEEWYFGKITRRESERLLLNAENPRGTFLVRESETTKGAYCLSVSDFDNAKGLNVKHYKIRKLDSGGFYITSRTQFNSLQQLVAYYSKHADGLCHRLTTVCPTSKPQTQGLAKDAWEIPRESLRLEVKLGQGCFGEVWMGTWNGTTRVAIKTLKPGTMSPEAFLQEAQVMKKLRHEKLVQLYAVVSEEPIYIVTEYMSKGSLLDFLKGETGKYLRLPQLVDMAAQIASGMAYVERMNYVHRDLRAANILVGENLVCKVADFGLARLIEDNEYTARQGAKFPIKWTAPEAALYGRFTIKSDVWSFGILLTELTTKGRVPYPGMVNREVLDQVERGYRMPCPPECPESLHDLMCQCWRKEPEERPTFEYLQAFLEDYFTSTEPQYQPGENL
Procedure: as §1, §2, §3

A2C12 [2] = test: Whole genome expression analysis (Affymetrix microarray); type: cell-based, mouse; conditions: IC50 concentration, 96 h
Procedure: (§4) The cells were harvested and RNA was isolated using RNeasy Mini Kit (Qiagen, Hilden, Germany) according to the instructions of the manufacturer. The isolated RNA (250 ng) was processed further using standard protocols as described recently with the exception of the 3′ IVT Express Kit (Affymetrix, High Wycombe, UK) that was utilized according to instructions. Quality control of cRNA was done with the Agilent 2100 Bioanalyzer (Agilent Tech according to manufacturer's protocols. Following fragmentation, cRNA of each sample was hybridized to Affymetrix GeneChip® Mouse Genome 430 2.0 or Human Genome U133 Plus 2.0 and scanned with an Affymetrix 3000 7G scanner.
(§5) The resultant data was normalized by Probe Logarithmic Intensity Error Estimation (PLIER) algorithm. Statistical analysis was carried out with the ArrayTrack software (National Center for Toxicological Research/FDA, Jefferson, AR, USA) using SAM algorithm.

A549 = test: as above; type: cell-based, human; conditions: IC50 concentration, 96 h
Procedure: as §4, §5

CaCo2 = test: as above; type: cell-based, human; conditions: IC50 concentration, 96 h
Procedure: as §4, §5

HepG2 = test: as above; type: cell-based, human; conditions: IC50 concentration, 96 h
Procedure: as §4, §5

[3] = test system: murine and human cell lines; test: Whole genome expression analysis, statements over several cell lines; type: cell-based
Procedure: as §4, §5

SMILES: CSc1nc(NCCc2ccc(Cl)cc2)c2cnn(CC(Cl)c3ccccc3)c2n1 (centres unmarked) [Si57]
- Cells in G1 phase (A2C12 [1]): 44.1%
- Cells in G2 phase (A2C12 [1]): 12.2%
- Cells in S phase (A2C12 [1]): 43.7%
- Change of caspase-3/7 activity in all cell lines (all tested cell lines): declined

- Ki (c-Abl): 120 nM
- Inhibition of c-Src kinase activity (c-Src): no inhibition
- Genes regulated in common in A549 and CaCo2 (number) ([3]; Fig. 4A): 13
SMILES: Clc1cccc(Nc2nc(SC3CCCC3)nc3c2cnn3CC(Cl)c2ccccc2)c1 (centres unmarked) [Si135]
- Cells in G1 phase (A2C12 [1]): 54.5%
- Cells in G2 phase (A2C12 [1]): 12.6%
- Cells in S phase (A2C12 [1]): 33%
- Significantly differentially regulated genes, downregulated (number) (A2C12 [2]; SAM FDR<0.01, FC>2): 33
- Significantly differentially regulated genes, upregulated (number) (A2C12 [2]; SAM FDR<0.01, FC>2): 118
- Actg2 gene expression (A2C12 [2]; vs control): -4.51 log2 of fold change
- Ctgf gene expression (A2C12 [2]; vs control): 1.05 log2 of fold change
- Dusp3 gene expression (A2C12 [2]; vs control): 1.06 log2 of fold change
- Gadd45a gene expression (A2C12 [2]; vs control): 1.81 log2 of fold change
- Il6 gene expression (A2C12 [2]; vs control): -4.69 log2 of fold change
- Mmp13 gene expression (A2C12 [2]; vs control): 2.95 log2 of fold change
- Mtm1 gene expression (A2C12 [2]; vs control): 1.00 log2 of fold change
- Ptn gene expression (A2C12 [2]; vs control): -5.35 log2 of fold change
- Ptprg gene expression (A2C12 [2]; vs control): 1.05 log2 of fold change
- Significantly differentially regulated genes, downregulated (number) (A549; SAM FDR<0.01, FC>2): 17
- Significantly differentially regulated genes, upregulated (number) (A549; SAM FDR<0.01, FC>2): 61
- Cdcp1 gene expression (A549; vs control): 1.23 log2 of fold change
- Ceacam6 gene expression (A549; vs control): 1.63 log2 of fold change
- Il8 gene expression (A549; vs control): 1.20 log2 of fold change
- Lamb3 gene expression (A549; vs control): 1.08 log2 of fold change
- Ptgs2 gene expression (A549; vs control): 1.05 log2 of fold change
- Vcan gene expression (A549; vs control): -4.42 log2 of fold change
- Significantly differentially regulated genes, downregulated (number) (CaCo2; SAM FDR<0.01, FC>2): 55
- Significantly differentially regulated genes, upregulated (number) (CaCo2; SAM FDR<0.01, FC>2): 193
- Birc5 gene expression (CaCo2; vs control): -4.36 log2 of fold change
- Cav1 gene expression (CaCo2; vs control): 1.30 log2 of fold change
- Cdkn1a gene expression (CaCo2; vs control): 1.00 log2 of fold change
- Ceacam1 gene expression (CaCo2; vs control): 1.47 log2 of fold change
- Ceacam6 gene expression (CaCo2; vs control): 1.25 log2 of fold change
- Cxcl2 gene expression (CaCo2; vs control): 1.16 log2 of fold change
- Dusp1 gene expression (CaCo2; vs control): 1.05 log2 of fold change
- Flnc gene expression (CaCo2; vs control): 1.43 log2 of fold change
- Itga2 gene expression (CaCo2; vs control): 1.02 log2 of fold change
- Jun gene expression (CaCo2; vs control): 1.51 log2 of fold change
- Lamc2 gene expression (CaCo2; vs control): 1.27 log2 of fold change
- Mtss1 gene expression (CaCo2; vs control): -4.64 log2 of fold change
- Ptn gene expression (CaCo2; vs control): -4.50 log2 of fold change
- Tgfb1i1 gene expression (CaCo2; vs control): 1.67 log2 of fold change
- Thbs (thrombospondin 1) gene expression (CaCo2; vs control): -4.36 log2 of fold change
- Tnc gene expression (CaCo2; vs control): -6.40 log2 of fold change
- Tuba1a gene expression (CaCo2; vs control): 2.27 log2 of fold change
- Significantly differentially regulated genes, downregulated (number) (HepG2; SAM FDR<0.01, FC>2): 0
- Significantly differentially regulated genes, upregulated (number) (HepG2; SAM FDR<0.01, FC>2): 87
- Dusp1 gene expression (HepG2; vs control): 1.56 log2 of fold change
- Hnrnpr gene expression (HepG2; vs control): 1.08 log2 of fold change
- Jun gene expression (HepG2; vs control): 1.34 log2 of fold change
- Pik3ca gene expression (HepG2; vs control): 2.01 log2 of fold change
- Ptk2 (FAK) gene expression (HepG2; vs control): 1.20 log2 of fold change
- Significantly regulated genes (number) ([3]; IC50 concentration, 96 h, cell line not stated): approx. 150
